{
  "source": "patent US20110104257A1",
  "about": "“POLYMORPHISMS PREDICTIVE OF PLATINUM-COORDINATING COMPOUND-INDUCED OTOTOXICITY” (priority 2008, published 2011)",
  "origin": "cited, not measured here",
  "key": {"[1]": {"system": "aminoglycoside ototoxicity", "conditions": "Guinea pig"}, "[2]": {"system": "cisplatin ototoxicity", "parameters": "key to the marks not given beside the values", "conditions": "Hamster"}, "[3]": {"system": "cisplatin ototoxicity", "conditions": "Rat"}, "[4]": {"system": "aminoglycoside ototoxicity", "parameters": "key to the marks not given beside the values", "conditions": "Gentamicin; Rat"}, "[5]": {"system": "cisplatin ototoxicity", "conditions": "species cell empty"}, "[6]": {"system": "aminoglycoside ototoxicity", "parameters": "key to the marks not given beside the values", "conditions": "Gentamicin; Mouse"}, "[7]": {"system": "cisplatin ototoxicity", "parameters": "key to the marks not given beside the values", "conditions": "Chinchilla"}, "[8]": {"conditions": "mice"}, "[9]": {"system": "cisplatin ototoxicity", "parameters": "key to the marks not given beside the values", "conditions": "Guinea pig"}},
  "note": "Read-outs that look alike come from different tables or passages of the source.",
  "data": [
    {"molecule": "O=C(O)CCCC[C@@H]1CCSS1", "note": "(racemic) [Lipoic acid]; as to Efficacy of protective agent against aminoglycoside ototoxicity: key: +, low efficacy; ++, moderate efficacy; +++, high efficacy", "values": [
      {"measurement": "Efficacy of protective agent against aminoglycoside ototoxicity", "setting": "[1]; Amikacin", "result": "+++"}
    ]},
    {"molecule": "c1ccc(-c2ccccn2)nc1", "note": "[2,2-DPD, 2,2′-dipyridyl]", "values": [
      {"measurement": "Efficacy of protective agent against aminoglycoside ototoxicity", "setting": "[1]; Gentamicin", "result": "++"}
    ]},
    {"molecule": "NCC[C@H](O)C(=O)N[C@@H]1C[C@H](N)[C@@H](O[C@H]2O[C@H](CN)[C@@H](O)[C@H](O)[C@H]2O)[C@H](O)[C@H]1O[C@H]1O[C@H](CO)[C@@H](O)[C@H](N)[C@H]1O", "note": "[Amakacin preconditioning]", "values": [
      {"measurement": "Efficacy of protective agent against aminoglycoside ototoxicity", "setting": "[1]; Amikacin", "result": "++"}
    ]},
    {"molecule": "NCCCNCCSP(=O)(O)O", "note": "[Amifostine]", "values": [
      {"measurement": "Degree of protection against cisplatin ototoxicity", "setting": "[2]", "result": "+++"}
    ]},
    {"molecule": "N=C(N)NN", "note": "[Aminoguanidine]", "values": [
      {"measurement": "Degree of protection against cisplatin ototoxicity", "setting": "[3]", "result": "++"}
    ]},
    {"molecule": "CSCC[C@H](NC(=O)[C@H](Cc1ccccc1)NC[C@@H](NC[C@@H](N)CS)C(C)C)C(=O)O", "note": "[B581]", "values": [
      {"measurement": "Efficacy of protective agent against aminoglycoside ototoxicity", "setting": "[4]", "result": "++"}
    ]},
    {"molecule": "OC[C@H]1O[C@@H](n2cnc3c(NC4CCCC4)nc(Cl)nc32)[C@H](O)[C@@H]1O", "note": "[CCPA, 2-chloro-N-cyclopentyladenosine]", "values": [
      {"measurement": "Degree of protection against cisplatin ototoxicity", "setting": "[5]", "result": "++"}
    ]},
    {"molecule": "CCSCc1ccc2c(c1)c1c3c(c4c5cc(CSCC)ccc5n5c4c1n2[C@H]1C[C@](O)(C(=O)OC)[C@]5(C)O1)CNC3=O", "note": "[CEP1347]", "values": [
      {"measurement": "Efficacy of protective agent against aminoglycoside ototoxicity", "setting": "[1]; Gentamicin", "result": "+"}
    ]},
    {"molecule": "CSCC[C@@H](N)C(=O)O", "note": "[D-methionine]", "values": [
      {"measurement": "Degree of protection against cisplatin ototoxicity", "setting": "[3]", "result": "+++"},
      {"measurement": "Efficacy of protective agent against aminoglycoside ototoxicity", "setting": "[1]; Gentamicin", "result": "++"}
    ]},
    {"molecule": "C=C(CC)C(=O)c1ccc(OCC(=O)O)c(Cl)c1Cl", "note": "[Ethacrynic acid]", "values": [
      {"measurement": "Efficacy of protective agent against aminoglycoside ototoxicity", "setting": "[1]; Gentamicin", "result": "+"}
    ]},
    {"molecule": "COC(=O)[C@H](CCSC)NC(=O)c1ccc(NC[C@@H](N)CS)cc1-c1ccccc1", "note": "[FTI277]", "values": [
      {"measurement": "Efficacy of protective agent against aminoglycoside ototoxicity", "setting": "[4]", "result": "+++"}
    ]},
    {"molecule": "Nc1nc2c(ncn2[C@@H]2O[C@H](COP(=O)(O)OP(O)(O)=S)[C@@H](O)[C@H]2O)c(=O)[nH]1", "note": "[GDP-βs]", "values": [
      {"measurement": "Efficacy of protective agent against aminoglycoside ototoxicity", "setting": "[4]", "result": "+++"}
    ]},
    {"molecule": "[Cl-].[Cl-].[Mn+2].c1cc2nc(c1)CN[C@@H]1CCCC[C@H]1NCCN[C@@H]1CCCC[C@H]1NC2", "note": "[M40403]", "values": [
      {"measurement": "Efficacy of protective agent against aminoglycoside ototoxicity", "setting": "[6]", "result": "++"},
      {"measurement": "Degree of protection against cisplatin ototoxicity", "setting": "[5]", "result": 0}
    ]},
    {"molecule": "NS(=O)(=O)C#Cc1ccccc1", "note": "[Pifithrin]", "values": [
      {"measurement": "Degree of protection against cisplatin ototoxicity", "setting": "[5]", "result": "++"}
    ]},
    {"molecule": "C[C@H](Cc1ccccc1)Nc1ncnc2c1ncn2[C@@H]1O[C@H](CO)[C@@H](O)[C@H]1O", "note": "[R-PIA]", "values": [
      {"measurement": "Degree of protection against cisplatin ototoxicity", "setting": "[7]", "result": "++"}
    ]},
    {"molecule": "C[S+](CC[C@H](N)C(=O)O)C[C@H]1O[C@@H](n2cnc3c(N)ncnc32)[C@H](O)[C@@H]1O", "note": "(stereo partly shown) [SAM, S-adenosyl methionine]", "values": [
      {"measurement": "toxicity as monitored by renal dysfunction (creatinine and BUN)", "setting": "[8]", "result": "not toxic"}
    ]},
    {"molecule": "CC(S)C(=O)NCC(=O)O", "note": "(stereo not shown) [Tiopronin]", "values": [
      {"measurement": "Degree of protection against cisplatin ototoxicity", "setting": "[3]", "result": "++"}
    ]},
    {"molecule": "Cc1c(C)c2c(c(C)c1O)CCC(C)(C(=O)O)O2", "note": "(stereo not shown) [Trolox]", "values": [
      {"measurement": "Degree of protection against cisplatin ototoxicity", "setting": "[9]", "result": "++"}
    ]},
    {"molecule": "N.N.[Cl][Pt][Cl]", "note": "[cisplatin]", "values": [
      {"measurement": "severe, permanent, bilateral hearing loss, share of patients", "setting": "adult patients", "result": "10-25%"},
      {"measurement": "severe, permanent, bilateral hearing loss, share of patients", "setting": "children", "result": "41-61%"},
      {"measurement": "Permanent hearing loss, frequency", "setting": "children less than 5 years old", "result": 48, "unit": "%"},
      {"measurement": "severe, permanent, bilateral hearing loss, share of patients", "setting": "patients receiving high doses (>400 mg/m^2)", "result": 50, "unit": "%"},
      {"measurement": "Permanent hearing loss, share of patients", "setting": "patients receiving standard doses of cisplatin", "result": 25, "unit": "%"}
    ]},
    {"molecule": "Cc1c(C)c2c(c(C)c1O)CC[C@@](C)(CCC[C@H](C)CCC[C@H](C)CCCC(C)C)O2", "note": "[α-Tocopherol]", "values": [
      {"measurement": "Degree of protection against cisplatin ototoxicity", "setting": "[9]", "result": "++"},
      {"measurement": "Degree of protection against cisplatin ototoxicity", "setting": "[3]", "result": "++"},
      {"measurement": "Efficacy of protective agent against aminoglycoside ototoxicity", "setting": "[1]; Gentamicin", "result": "+++"}
    ]},
    {"molecule": "Glutathione ester", "values": [
      {"measurement": "Degree of protection against cisplatin ototoxicity", "setting": "[3]", "result": "+"}
    ]},
    {"molecule": "Methylthiobenzoic acid", "values": [
      {"measurement": "Degree of protection against cisplatin ototoxicity", "setting": "[3]", "result": "++"}
    ]},
    {"molecule": "SOD1: SOD1, protective agent", "values": [
      {"measurement": "Efficacy of protective agent against aminoglycoside ototoxicity", "setting": "[1]; Kanamycin + Ethacrynic acid", "result": "++"}
    ]},
    {"molecule": "Z-DEVD-fluoromethyl ketone", "values": [
      {"measurement": "Degree of protection against cisplatin ototoxicity", "setting": "[9]", "result": "+++"}
    ]},
    {"molecule": "Z-LEKD-fluoromethyl ketone", "values": [
      {"measurement": "Degree of protection against cisplatin ototoxicity", "setting": "[9]", "result": "+++"}
    ]},
    {"molecule": "SOD2: SOD2, protective agent (protein, UniProt P04179 25-222, looked up) Superoxide dismutase [Mn], …: KHSLPDLPYDYGALEPHINAQIMQLHHSKHHAAYVNNLNVTEEKYQEALAKGDVTAQIALQPALKFNGGGHINHSIFWTNLSPNGGGEPKGELLEAIKRDFGSFDKFKEKLTAASVGVQGSGWGWLGFNKERGHLQIAACPNQDPLQGTTGLIPLLGIDVWEHAYYLQYKNVRPDYLKAIWNVINWENVTERYMACKK", "values": [
      {"measurement": "Efficacy of protective agent against aminoglycoside ototoxicity", "setting": "[1]; Kanamycin + Ethacrynic acid", "result": "++"}
    ]}
  ]
}
